Columns and labels:
Format in all cases: cell-based
MM.1S cells = experiment: Effect of the compound on MM.1S cell proliferation (MTS, 7 days); conditions: Homo sapiens, MM1.S, 168 h, 7 days, MTS, Table 1, read-out: MM.1S Cells Inhibition Activity IC50
Protocol: MM.1S cells were cultured in 1640 medium supplemented with 10% fetal bovine serum, then collected and diluted to the desired cell concentration after 7 days of treatment. A total of 180 μL of cell suspension was added to each well in a 96-well cell plate, ensuring 20,000 cells per well. For the control group, 20 μL of 0.2% DMSO was added to each well. Compounds were diluted in a 5-step gradient from a 10 mM stock solution, and 20 μL of each dilution was added to the compound-containing wells (with a final DMSO concentration of 0.2%). The cells were incubated in a 37° C., 5% CO2 incubator for 7 days. Afterward, 20 μL of the MTS reagent (Promega, G5430) was added to each well, followed by incubation for 3-4 hours in a 37° C., 5% CO2 incubator. Absorbance at 490 nm was measured using a microplate reader, with 690 nm absorbance as the background. The final raw data was calculated as OD490-OD690. The compound inhibition rate was calculated using the formula: […]
The IC50 for the compound's proliferative inhibition was fitted using GraphPad Prism 5.0. The experiment was repeated three times, and the average and standard deviation were calculated using three parallel experiments per trial.

MV-4-11 cells = experiment: Inhibition of MV-4-11 cell proliferation (MTS, 7 days); conditions: Homo sapiens, MV4-11, 168 h, 7 days, MTS, Table 3, read-out: MV-4-11 Cells Inhibition Activity IC50
Protocol: MV-4-11 cells were cultured in IMDM with 10% fetal bovine serum, collected, and diluted to the appropriate cell concentration for a 7-day treatment period. A 96-well plate was used, and 180 μL of cell suspension was added to each well, resulting in a cell count of 2,000 per well. For the control wells, 20 μL of DMSO at a final concentration of 0.2% was added. The compounds were diluted from a 10 mM stock solution in a five-fold gradient, and 20 μL was added to the compound wells (with a final DMSO concentration of 0.2%). The cells were incubated in a 37° C., 5% CO2 incubator for 7 days. After preparing the reaction solution using the MTS reagent kit (Promega, G5430), 20 μL was added to each well, and the cells were incubated in the incubator for 3-4 hours. The absorbance at 490 nm was measured using a microplate reader, with the absorbance at 690 nm as the background value. The final data was calculated as OD490-OD690. The inhibition rate of the compounds was calculated using the formula: […]
The IC50 values for proliferation inhibition were calculated using GraphPad Prism 5.0. The experiments were repeated three times, with three parallel experiments for each, and the mean and standard deviation were calculated.
The cell activity test results are shown in Table 3: A indicates IC50<1 μM, B indicates 1 µM≤IC50≤20 μM, and C indicates IC50>20 μM.

Mino cells = experiment: Inhibition of cell proliferation of Mino cells (MTS, 3 days); conditions: Homo sapiens, MINO, 72 h, 3 days, MTS, Table 2, read-out: Mino Cells Inhibition Activity IC50
Protocol: Mino cells were cultured with RPMI-1640 medium supplemented with 15% fetal bovine serum, and collected. The cell concentration was diluted according to a 3-day treatment period, and 90 μL of the cell suspension was added to each well of a 96-well plate, resulting in 8000 cells per well. For control wells, 10 μL of DMSO at a final concentration of 0.2% was added. The compounds were diluted in a 5-fold gradient from a 10 mM stock solution, and 10 μL of each compound solution was added to the experimental wells (with a final DMSO concentration of 0.2%). The cells were incubated in a 37° C., 5% CO2 incubator for 3 days. After preparing the reaction mixture using the MTS reagent kit (Promega, G5430), 20 μL was added to each well, and the cells were incubated for 3-4 hours at 37° C., 5% CO2.
The absorbance at 490 nm was read using a microplate reader, with the absorbance at 690 nm used as the background. The final raw data was calculated as OD490-OD690. The inhibition rate of the compounds was calculated using the formula: Inhibition rate=(OD DMSO−OD compound)/(OD DMSO−OD blank)×100%. The IC50 values for cell proliferation inhibition of the compounds were fitted using GraphPad Prism 5.0. The experiment was repeated three times, with the average and standard deviation calculated from three parallel experiments each time.

IC50 (MM.1S cells) [nM]	IC50 (MV-4-11 cells) [nM]	Structure (SMILES)	IC50 (Mino cells) [nM]
< 15	< 1000	O=C1CCC(N2C(=O)c3cccc(NCc4cnc(-c5ccc(O[C@H]6CCOC6)cc5)o4)c3C2=O)C(=O)N1 (stereo partly drawn) [Example 48]	< 60
15 to 30	< 1000	O=C1CCC(N2C(=O)c3cccc(NCc4cnc(-c5ccc(OC6COC6)cc5)o4)c3C2=O)C(=O)N1 (stereo not drawn) [Example 49]	< 60
< 15	< 1000	O=C1CCC(N2C(=O)c3cccc(NCc4cnc(-c5ccc(OCCO)cc5)o4)c3C2=O)C(=O)N1 (stereo not drawn) [Example 50]	< 60
< 15	< 1000	COCCOc1ccc(-c2ncc(CNc3cccc4c3C(=O)N(C3CCC(=O)NC3=O)C4=O)o2)cc1 (stereo not drawn) [Example 52]	< 60
< 15	< 1000	O=C1CCC(N2C(=O)c3cccc(NCc4cnc(-c5ccc(OC6CCOCC6)cc5)o4)c3C2=O)C(=O)N1 (stereo not drawn) [Example 53]	< 60
< 15	< 1000	O=C1CCC(N2C(=O)c3cccc(NCc4cnc(-c5ccc(O[C@@H]6CCOC6)cc5)o4)c3C2=O)C(=O)N1 (stereo partly drawn) [Example 54]	< 60
< 15	< 1000	O=C1CCC(N2C(=O)c3cccc(NCc4cnc(-c5ccc(C(F)(F)F)cc5)o4)c3C2=O)C(=O)N1 (stereo not drawn) [Example 57]	> 120
15 to 30	< 1000	O=C1CCC(N2C(=O)c3cccc(NCc4cnc(-c5cccc(C(F)(F)F)c5)o4)c3C2=O)C(=O)N1 (stereo not drawn) [Example 58]	> 120
30 to 150	1000 to 20000	O=C1CCC(N2C(=O)c3cccc(NCc4cnc(-c5ccccc5C(F)(F)F)o4)c3C2=O)C(=O)N1 (stereo not drawn) [Example 59]	> 120
15 to 30	1000 to 20000	O=C1CCC(N2C(=O)c3cccc(NCc4ncc(-c5ccc(C(F)(F)F)cc5)o4)c3C2=O)C(=O)N1 (stereo not drawn) [Example 60]	> 120
30 to 150	> 20000	O=C1CCC(N2C(=O)c3cccc(NCc4ncc(-c5cccc(C(F)(F)F)c5)o4)c3C2=O)C(=O)N1 (stereo not drawn) [Example 61]	> 120
> 150	1000 to 20000	O=C1CCC(N2C(=O)c3cccc(NCc4ncc(-c5ccccc5C(F)(F)F)o4)c3C2=O)C(=O)N1 (stereo not drawn) [Example 62]	> 120
15 to 30	< 1000	O=C1CCC(N2C(=O)c3cccc(NCc4cnc(-c5cccc(Cl)c5)o4)c3C2=O)C(=O)N1 (stereo not drawn) [Example 63, 4-(((2-(3-Chlorophenyl)oxazol-5-yl)methyl)amino)-2-(2,6-Dioxopiperidin-3-yl)isoindolin-1,3-dione]	> 120
< 15	< 1000	O=C1CCC(N2C(=O)c3cccc(NCc4ncc(-c5ccc(Cl)cc5)o4)c3C2=O)C(=O)N1 (stereo not drawn) [Example 64, 4-(((5-(4-Chlorophenyl)oxazol-2-yl)methyl)amino)-2-(2,6-Dioxopiperidin-3-yl)isoindolin-1,3-dione]	> 120
30 to 150	< 1000	O=C1CCC(N2C(=O)c3cccc(NCc4ncc(-c5cccc(Cl)c5)o4)c3C2=O)C(=O)N1 (stereo not drawn) [Example 65, 4-(((5-(3-Chlorophenyl)oxazol-2-yl)methyl)amino)-2-(2,6-Dioxopiperidin-3-yl)isoindolin-1,3-dione]	> 120
30 to 150	< 1000	O=C1CCC(N2C(=O)c3cccc(NCc4ncc(-c5ccccc5Cl)o4)c3C2=O)C(=O)N1 (stereo not drawn) [Example 66, 4-(((5-(2-Chlorophenyl)oxazol-2-yl)methyl)amino)-2-(2,6-Dioxopiperidin-3-yl)isoindolin-1,3-dione]	> 120
30 to 150	< 1000	O=C1CCC(N2C(=O)c3cccc(NCc4cnc(-c5ccccc5Cl)s4)c3C2=O)C(=O)N1 (stereo not drawn) [Example 69, 4-(((2-(2-Chlorophenyl)thiazol-5-yl)methyl)amino)-2-(2,6-Dioxopiperidin-3-yl)isoindolin-1,3-dione]	> 120
< 15	< 1000	O=C1CCC(N2C(=O)c3cccc(NCc4cnc(-c5ccccc5F)o4)c3C2=O)C(=O)N1 (stereo not drawn) [Example 71, 2-(2,6-Dioxopiperidin-3-yl)-4-(((2-(2-Fluorophenyl)oxazol-5-yl)methyl)amino)isoindolin-1,3-dione]	< 60
< 15	< 1000	O=C1CCC(N2C(=O)c3cccc(NCc4ncc(-c5ccc(F)cc5)o4)c3C2=O)C(=O)N1 (stereo not drawn) [Example 72, 2-(2,6-Dioxopiperidin-3-yl)-4-(((5-(4-Fluorophenyl)oxazol-2-yl)methyl)amino)isoindolin-1,3-dione]	> 120
15 to 30	< 1000	O=C1CCC(N2C(=O)c3cccc(NCc4cnc(-c5ccc(Cl)c(Cl)c5)o4)c3C2=O)C(=O)N1 (stereo not drawn) [Example 73, 4-(((2-(3,4-Dichlorophenyl)oxazol-5-yl)methyl)amino)-2-(2,6-Dioxopiperidin-3-yl)isoindolin-1,3-dione]	> 120
< 15	1000 to 20000	O=C1CCC(N2C(=O)c3cccc(NCc4cnc(-c5cccc(Cl)c5Cl)o4)c3C2=O)C(=O)N1 (stereo not drawn) [Example 74, 4-(((2-(2,3-Dichlorophenyl)oxazol-5-yl)methyl)amino)-2-(2,6-Dioxopiperidin-3-yl)isoindolin-1,3-dione]	> 120
30 to 150	< 1000	O=C1CCC(N2C(=O)c3cccc(NCc4cnc(-c5ccc(Cl)cc5Cl)o4)c3C2=O)C(=O)N1 (stereo not drawn) [Example 76, 4-(((2-(2,4-Dichlorophenyl)oxazol-5-yl)methyl)amino)-2-(2,6-Dioxopiperidin-3-yl)isoindolin-1,3-dione]	> 120
30 to 150	1000 to 20000	O=C1CCC(N2C(=O)c3cccc(NCc4cnc(-c5cc(Cl)ccc5Cl)o4)c3C2=O)C(=O)N1 (stereo not drawn) [Example 77]	> 120
> 150	< 1000	C[C@@H]1CN(Cc2ncc(CNc3cccc4c3C(=O)N(C3CCC(=O)NC3=O)C4=O)o2)C[C@H](C)O1 (stereo partly drawn) [Example 79, 4-(((2-(((2R,6S)-2,6-Dimethylmorpholino)methyl)oxazol-5-yl)methyl)amino)-2-(2,6-Dioxopiperidin-3-yl)isoindoline-1,3-dione]	> 120
> 150	< 1000	O=C1CCC(N2C(=O)c3cccc(NCc4cnc(CN5CC(N6CCOCC6)C5)o4)c3C2=O)C(=O)N1 (stereo not drawn) [Example 80]	> 120
30 to 150	1000 to 20000	N#Cc1ccc(N2CCN(Cc3ncc(CNc4cccc5c4C(=O)N(C4CCC(=O)NC4=O)C5=O)o3)CC2)c(F)c1 (stereo not drawn) [Example 81]	> 120
> 150	< 1000	O=C1CCC(N2C(=O)c3cccc(NCc4cnc(CN5CCOCC5)o4)c3C2=O)C(=O)N1 (stereo not drawn) [Example 82]	> 120
30 to 150	> 20000	O=C1CCC(N2C(=O)c3cccc(NCc4cnc(CN5CCC(N6CCOCC6)CC5)o4)c3C2=O)C(=O)N1 (stereo not drawn) [Example 87]	> 120
> 150	1000 to 20000	CN1CCN(Cc2ncc(CNc3cccc4c3C(=O)N(C3CCC(=O)NC3=O)C4=O)o2)CC1 (stereo not drawn) [Example 91]	> 120
